According to patent US20260285850A1, “SUBSTITUTED OXAZOLIDINONES AND IMIDAZOLINONES AS HERBICIDES” (FMC CORPORATION, priority 2023, published 2026):

Key:
Type in all cases: in vivo
[1] = tested on: ragweed (common ragweed, Ambrosia artemisiifolia); assay: Test A preemergence soil spray, visual injury rating 0-100; conditions: 10 days
In short: (§1)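 Loam-sand pots got test material in surfactant-containing solvent, either as a directed soil spray before emergence or on plants at the one- to two-leaf stage. Visual injury (0-100) was read after ten greenhouse days.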

corn (Zea mays) [2] = assay: as above; conditions: 10 days
In short: as §1

[3] = tested on: oat, wild (wild oat, Avena fatua); assay: as above; conditions: 10 days
In short: as §1

kochia (Bassia scoparia) [4] = assay: as above; conditions: 10 days
In short: as §1

[5] = tested on: blackgrass (Alopecurus myosuroides); assay: as above; conditions: 10 days
In short: as §1

[6] = tested on: ryegrass, Italian (italian ryegrass, Lolium multiflorum); assay: as above; conditions: 10 days
In short: as §1

[7] = tested on: green foxtail (Setaria viridis); assay: as above; conditions: 10 days
In short: as §1

soybean (Glycine max) [8] = assay: as above; conditions: 10 days
In short: as §1

[9] = tested on: barnyardgrass (Echinochloa crus-galli); assay: as above; conditions: 10 days
In short: as §1

[10] = tested on: wheat (Triticum aestivum); assay: as above; conditions: 10 days
In short: as §1

[11] = tested on: palmer (palmer amaranth, palmer pigweed, Amaranthus palmeri); assay: as above; conditions: 10 days
In short: as §1

[12] = tested on: ragweed (common ragweed, Ambrosia artemisiifolia); assay: Test A postemergence application, visual injury rating 0-100
In short: as §1

corn (Zea mays) [13] = assay: as above
In short: as §1

[14] = tested on: oat, wild (wild oat, Avena fatua); assay: as above
In short: as §1

kochia (Bassia scoparia) [15] = assay: as above
In short: as §1

[16] = tested on: blackgrass (Alopecurus myosuroides); assay: as above
In short: as §1

[17] = tested on: ryegrass, Italian (italian ryegrass, Lolium multiflorum); assay: as above
In short: as §1

[18] = tested on: green foxtail (Setaria viridis); assay: as above
In short: as §1

soybean (Glycine max) [19] = assay: as above
In short: as §1

[20] = tested on: barnyardgrass (Echinochloa crus-galli); assay: as above
In short: as §1

[21] = tested on: wheat (Triticum aestivum); assay: as above
In short: as §1

[22] = tested on: galium (catchweed bedstraw, Galium aparine); assay: as above
In short: as §1

[23] = tested on: palmer (palmer amaranth, palmer pigweed, Amaranthus palmeri); assay: as above
In short: as §1

rice (Oryza sativa) = assay: Test B flooded paddy test, visual plant response rating 0-100; conditions: 250 g ai/ha, Flood, applied to paddy water, evaluated after 13 days
In short: (§2)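 Visual scores versus untreated controls were recorded 13 days after treatment of greenhouse-held plants. At the 2-leaf stage, pots were flooded 3 cm above the soil surface and compounds added straight to the water.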

[24] = tested on: ducksalad (Heteranthera limosa); assay: as above; conditions: 250 g ai/ha, Flood, applied to paddy water, evaluated after 13 days
In short: as §2

[25] = tested on: sedge, umbrella (small-flower umbrella sedge, Cyperus difformis); assay: as above; conditions: 250 g ai/ha, Flood, applied to paddy water, evaluated after 13 days
In short: as §2

[26] = tested on: barnyardgrass (Echinochloa crusgalli); assay: as above; conditions: 250 g ai/ha, Flood, applied to paddy water, evaluated after 13 days
In short: as §2

[27] = 62 g ai/ha, 0 = no effect, 100 = complete control
[28] = 62 g ai/ha, postemergence, 10 days, 0 = no effect, 100 = complete control
[29] = Postemergence, 16 g ai/ha, greenhouse 10 days, 0 no effect, 100 complete control

With `COC(=O)C1=CCC(NC(=O)C2(C)CN(c3cc(F)c(F)c(F)c3)C(=O)O2)C1` (mixture of isomers) [Compound 163] the “Ragweed plant response rating” value ([1]; 16 g ai/ha, 0 to 100 scale) was 0, the “Ragweed plant response rating (0-100)” value [1, 27] was 10 and the “Corn plant response rating” value (corn (Zea mays) [2]; 16 g ai/ha, 0 to 100 scale) was 0. The “Corn plant response rating (0-100)” value (corn (Zea mays) [2]; [27]) was 70, the “Oat, Wild plant response rating” value ([3]; 16 g ai/ha, 0 to 100 scale) was 0 and the “Oat, Wild plant response rating (0-100)” value [3, 27] was 20. For the same compound, the “Kochia plant response rating” value (kochia (Bassia scoparia) [4]; 16 g ai/ha, 0 to 100 scale) was 0, the “Kochia plant response rating (0-100)” value (kochia (Bassia scoparia) [4]; [27]) was 0 and the “Blackgrass plant response rating” value ([5]; 16 g ai/ha, 0 to 100 scale) was 0. For the same compound, the “Blackgrass plant response rating (0-100)” value [5, 27] was 0, the “Ryegrass, Italian plant response rating” value ([6]; 16 g ai/ha, 0 to 100 scale) was 0 and the “Ryegrass, Italian plant response rating (0-100)” value [6, 27] was 80. For the same compound, the “Foxtail, Green plant response rating” value ([7]; 16 g ai/ha, 0 to 100 scale) was 0, the “Foxtail, Green plant response rating (0-100)” value [7, 27] was 20 and the “Soybean plant response rating” value (soybean (Glycine max) [8]; 16 g ai/ha, 0 to 100 scale) was 0. The “Soybean plant response rating (0-100)” value (soybean (Glycine max) [8]; [27]) was 0, the “Barnyardgrass plant response rating” value ([9]; 16 g ai/ha, 0 to 100 scale) was 0 and the “Barnyardgrass plant response rating (0-100)” value [9, 27] was 20. The “Wheat plant response rating” value ([10]; 16 g ai/ha, 0 to 100 scale) was 20, the “Wheat plant response rating (0-100)” value [10, 27] was 80 and the “Pigweed, Palmer plant response rating” value ([11]; 16 g ai/ha, 0 to 100 scale) was 0. For the same compound, the “Pigweed, Palmer plant response rating (0-100)” value [11, 27] was 0, the “Ragweed plant response rating (0-100)” value [12, 28] was 0 and the “Ragweed plant response rating (0 to 100 scale)” value [12, 29] was 0. The “Corn plant response rating (0-100)” value (corn (Zea mays) [13]; [28]) was 100, the “Corn plant response rating (0 to 100 scale)” value (corn (Zea mays) [13]; [29]) was 90 and the “Oat, Wild plant response rating (0-100)” value [14, 28] was 90. The “Oat, Wild plant response rating (0 to 100 scale)” value [14, 29] was 30, the “Kochia plant response rating (0-100)” value (kochia (Bassia scoparia) [15]; [28]) was 90 and the “Kochia plant response rating (0 to 100 scale)” value (kochia (Bassia scoparia) [15]; [29]) was 20. For the same compound, the “Blackgrass plant response rating (0-100)” value [16, 28] was 70, the “Blackgrass plant response rating (0 to 100 scale)” value [16, 29] was 20 and the “Ryegrass, Italian plant response rating (0-100)” value [17, 28] was 80. For the same compound, the “Ryegrass, Italian plant response rating (0 to 100 scale)” value [17, 29] was 60, the “Foxtail, Green plant response rating (0-100)” value [18, 28] was 90 and the “Foxtail, Green plant response rating (0 to 100 scale)” value [18, 29] was 50. For the same compound, the “Soybean plant response rating (0-100)” value (soybean (Glycine max) [19]; [28]) was 70, the “Soybean plant response rating (0 to 100 scale)” value (soybean (Glycine max) [19]; [29]) was 50 and the “Barnyardgrass plant response rating (0-100)” value [20, 28] was 100. The “Barnyardgrass plant response rating (0 to 100 scale)” value [20, 29] was 70, the “Wheat plant response rating (0-100)” value [21, 28] was 70 and the “Wheat plant response rating (0 to 100 scale)” value [21, 29] was 30. For the same compound, the “Galium plant response rating (0-100)” value [22, 28] was 70, the “Galium plant response rating (0 to 100 scale)” value [22, 29] was 40 and the “Pigweed, Palmer plant response rating (0-100)” value [23, 28] was 80. The “Pigweed, Palmer plant response rating (0 to 100 scale)” value [23, 29] was 10, the “Plant response rating, Rice (0 to 100 scale, 0 is no effect and 100 is complete control)” value (rice (Oryza sativa)) was 60 and the “Plant response rating, Ducksalad (0 to 100 scale, 0 is no effect and 100 is complete control)” value [24] was 85. For the same compound, the “Plant response rating, Sedge, Umbrella (0 to 100 scale, 0 is no effect and 100 is complete control)” value [25] was 85 and the “Plant response rating, Barnyardgrass (0 to 100 scale, 0 is no effect and 100 is complete control)” value [26] was 55.
